{
  "source": "patent US20160168118A1",
  "about": "“N-(5-QUINOLIN-6-YL)PYRIDIN-3-YL) BENZSULFAMIDE DERIVATIVES, PREPARATION METHOD AND THERAPEUTIC USE THEREOF” (SECOND MILITARY MEDICAL UNIVERSITY, PLA, priority 2012, published 2016)",
  "key": {"[1]": {"system": "U87MG (human brain star glioblastoma)", "assay": "MTT assay, U87MG", "type": "cell-based", "conditions": "U-87 MG, 72 h", "summary_of_the_method": "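Cells seeded at 4~5×10^4 cells/ml in DMEM with 5-10% FBS, treated after 24 h for 72 h at 37° C, 5% CO2, in duplicate wells. MTT (5 mg/ml) added for 4 h, formazan dissolved and OD read at 570 nm.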"}, "A549": {"system": "A549", "assay": "NCI cytotoxicity test, A549", "type": "cell-based", "conditions": "Homo sapiens", "text": "(§1) Cytotoxicity Test of Compound 9, 10 and 17 on 60 Kinds of Human Cancer Cell Lines from the US National Cancer Institute"}, "[2]": {"system": "HCT116 (human colon cancer cells)", "assay": "MTT assay, HCT116", "type": "cell-based", "conditions": "HCT-116, 72 h"}, "COLO205": {"system": "COLO205", "assay": "NCI cytotoxicity test, COLO205", "type": "cell-based", "conditions": "Homo sapiens, COLO 205", "text": "as §1"}, "[3]": {"assay": "In vivo pharmacokinetics in SD rats", "conditions": "for AUC(0-t): read-out: AUC(0-24); for half-life / bioavailability: rat, plasma; for bioavailability: oral, rats, intragastric 20 mg/kg vs iv 2 mg/kg", "method": "SD rats, male, 4-6 weeks old, weighing 200-220 g, the total number is 12, were purchased from Shanghai Slac laboratory animal limited liability company, animal production license number: SCXK (Shanghai) 2008-0016, the experimental animals using license number: SCXK (Shanghai) 2007-0005, certificate number: 2007000514232.\nSD rats were randomly divided into two groups, numbered A and B, while 6 rats in each group, before the experiment starts, the rats were fasted 12 hours overnight, group A were tail vein injected with compound 9 by dose 2 mg/kg; group B were intragastric administrated with Compound 9 suspensions, of which the dose was calculated as 20 mg/kg;\nGroup A: tail intravenous injection (i.v.) administrated compound 9. Orbital blood 0.3 mL was taken on 0, 5, 10, 15, 30, 45, 60 min, 2 h, 3 h, 4 h, 6 h, 8 h, 12 h, and was placed in 1.5 mL EP tube coated with heparin, shaked up and down for 3 times, centrifuged at 3500 rpm for 5 min to get supernatant, and was kept in refrigerator at −20° C. to save backup;\nDose was 2 mg/kg (2.6 mL/kg), administered in a concentration of 770 μg/mL, which was dissolved with mixed aqueous solution of 9.4% ethanol and 24.5% isopropanol;\nGroup B: intragastric administration (i.g.), dose of 20 mg/kg, administered in a concentration of 1.5 mg/mL, and 3.75% Tween 80 was used to dissolve compound 9, gavage dose was (13.3 mL/kg);\nOrbital blood 0.5 mL was taken at 0, 5, 10, 15, 30, 45, 60 min, 2 h, 3 h, 4 h, 6 h, 8 h, 12 h, 24 h, and was placed in 1.5 mL EP tube coated with heparin, shaked up and down for 3 times, centrifuged at 3500 rpm for 5 min to get supernatant, and kept in refrigerator at −20° C. to save backup.\nPlasma sample 100 μL was precisely measured, put in 1.5 mL plastic centrifuge tube, 10 μL methanol and 190 μL methanol solution of compound 17 (internal standard) of 100.8 ng·mL^−1 were added, vortex mixed for 30 s, centrifuged at 12000r·min^−1 for 10 min, 200 μL supernatant was taken and put into the vial, 5 μL injected for HPLC-MS analysis.\nAnalytical conditions: column: SHISEIDO MG-C18 (100 mm×3.0 mm, 3.0 μm), mobile phase: acetonitrile: water (containing 0.1% formic acid=25:75 (V/V); flow rate: 0.8 mL·min^−1 analysis time 6 min, column temperature: 25° C., the injection volume: 5 μL, split ratio 2:1. The mass was in ESI source positive ion mode, the capillary voltage was 4000V, drying flow rate was 10 L/min, the atomizing air pressure was 40 psi, temperature of the drying gas was 350° C. Selective ion mode (SIM), the ion of compound 9 was [M+H] ions+m/z 561.2 and that of the internal standard compound 17 [M+H]+m/z 591.2, and the debris voltage was 70 eV.\nThe data gained were substituted into the accompanying standard curve, thus obtaining the drug concentration in rat plasma.\nThe pharmacokinetic parameters were analyzed by using non-compartmental model, the peak concentration Cmax and peak time Tmax were taken Found value, and the pharmacokinetic parameters were processed to obtain the pharmacokinetic parameters result of single dose."}, "[4]": {"conditions": "male, SD, iv, rat plasma, tail vein injection, 2 mg/kg"}, "[5]": {"conditions": "male, SD, po, rat plasma, intragastric administration, 20 mg/kg"}, "[6]": {"conditions": "rat plasma, intragastric administration, 20 mg/kg"}, "[7]": {"conditions": "rat plasma, tail vein injection, 2 mg/kg"}},
  "note": "Where two headings read alike, the source gives them in different places.",
  "data": [
    {"smiles": "COc1ncc(-c2ccc3nccc(-c4ccc(CN(C)C)cc4)c3c2)cc1NS(=O)(=O)c1ccc(F)cc1F", "note": "[Compound 9, N-(5-(4-(4-((dimethylamine)methyl)phenyl)quinolin-6-yl)-2-methoxypyridine-3-yl)-2,4-difluorobenzenesulfonamide]", "values": [
      {"measurement": "IC50", "setting": "[1]", "result": 0.051, "unit": "µg/mL"},
      {"measurement": "GI50", "setting": "A549", "result": "< 10", "unit": "nM"},
      {"measurement": "IC50", "setting": "[2]", "result": 0.00169, "unit": "µg/mL"},
      {"measurement": "GI50", "setting": "COLO205", "result": 13.5, "unit": "nM"},
      {"measurement": "AUC", "setting": "[3]; [4]", "result": 3740, "unit": "ng·h/mL"},
      {"measurement": "Cmax", "setting": "[3]; [4]", "result": 999, "unit": "ng/mL"},
      {"measurement": "MRT", "setting": "[3]; [4]", "result": 8.54, "unit": "h"},
      {"measurement": "Vd", "setting": "[3]; [4]", "result": 5.05, "unit": "L/kg"},
      {"measurement": "clearance", "setting": "[3]; [4]", "result": 8.92, "unit": "mL/min/kg"},
      {"measurement": "AUC(0-t)", "setting": "[3]; [4]", "result": 3450, "unit": "ng·h/mL"},
      {"measurement": "AUC", "setting": "[3]; [5]", "result": 35600, "unit": "ng·h/mL"},
      {"measurement": "Cmax", "setting": "[3]; [5]", "result": 7120, "unit": "ng/mL"},
      {"measurement": "MRT", "setting": "[3]; [5]", "result": 6.46, "unit": "h"},
      {"measurement": "Tmax", "setting": "[3]; [5]", "result": 0.5, "unit": "h"},
      {"measurement": "AUC(0-t)", "setting": "[3]; [5]", "result": 34100, "unit": "ng·h/mL"},
      {"measurement": "half-life", "setting": "[3]; male, SD, iv, 2 mg/kg, rat plasma, tail vein injection", "result": 6.55, "unit": "h"},
      {"measurement": "bioavailability", "setting": "[3]; male, SD, 20 mg/kg, read-out: Absolute bioavailability F0-t", "result": 98.8, "unit": "%"},
      {"measurement": "bioavailability", "setting": "[3]; male, SD, 20 mg/kg, read-out: Absolute bioavailability F0-∞", "result": 95.2, "unit": "%"},
      {"measurement": "half-life", "setting": "[3]; male, SD, po, 20 mg/kg, rat plasma, intragastric administration", "result": 4.4, "unit": "h"},
      {"measurement": "AUMC", "setting": "[3]; [6]", "result": 230.2, "unit": "μg/mL · h"},
      {"measurement": "AUMC(0-24)", "setting": "[3]; [6]", "result": 183.0, "unit": "μg/mL · h"},
      {"measurement": "k", "setting": "[3]; [6]", "result": 0.1573, "unit": "h⁻¹"},
      {"measurement": "t1/2", "setting": "[3]; [6]", "result": 4.406, "unit": "h"},
      {"measurement": "AUMC", "setting": "[3]; [7]", "result": 31.95, "unit": "μg/mL · h"},
      {"measurement": "AUMC(0-24)", "setting": "[3]; [7]", "result": 22.23, "unit": "μg/mL · h"},
      {"measurement": "k", "setting": "[3]; [7]", "result": 0.1063, "unit": "h⁻¹"}
    ]}
  ]
}
